Data as given in PMC4452934 (CPT: Pharmacometrics & Systems Pharmacology, 2015).

Experiment: Excretion in bile-duct cannulated rats
Assay type: in vivo, rat

**Q.** Which “direct excretion in bile and urine” value does the source give for `CCn1c(C(=O)N(C2CC2)C2CC2)cc2c3c(ncn3C)c(Nc3cc(C)n(C)n3)nc21` [BMS-911543] here?
**A.** Its value is < 2 % of total clearance.
